Non-standard residues stand in square brackets, D forms with d. Residues, ends and D or L forms follow the SMILES beside them. *: point of attachment. 1Nal = N[C@@H](Cc1cccc2ccccc12)C(=O)O; Palmitoyl = CCCCCCCCCCCCCCCC(=O)*; Myristoyl = CCCCCCCCCCCCCC(=O)*; Cha = N[C@@H](CC1CCCCC1)C(=O)O; Decanoyl = CCCCCCCCCC(=O)*; Octanoyl = CCCCCCCC(=O)*; Dap = NC[C@H](N)C(=O)O; Sar = CNCC(=O)O
Legend:
[1] = target: T1, human GHS-R1a receptor (Homo sapiens, UniProt Q92847); assay: Competitive binding studies (displacement of 125I-ghrelin); details: for % of ghrelin binding: relative to ghrelin = 100
T1 construct: purchased Multispan, Hayward, Calif., USA; host or cells: HEK293T cells, isolated plasma membranes
T1 sequence (Q92847 whole entry): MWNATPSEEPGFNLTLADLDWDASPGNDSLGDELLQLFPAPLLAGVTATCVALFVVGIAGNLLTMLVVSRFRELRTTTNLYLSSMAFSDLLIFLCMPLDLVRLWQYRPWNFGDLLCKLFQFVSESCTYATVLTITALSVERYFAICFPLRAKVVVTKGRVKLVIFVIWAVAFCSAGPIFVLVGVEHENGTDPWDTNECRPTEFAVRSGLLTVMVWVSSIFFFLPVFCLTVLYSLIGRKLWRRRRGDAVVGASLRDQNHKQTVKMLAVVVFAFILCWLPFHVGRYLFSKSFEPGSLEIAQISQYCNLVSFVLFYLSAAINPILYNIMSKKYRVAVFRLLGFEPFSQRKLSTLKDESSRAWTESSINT
Protocol: Isolated plasma membranes from the HEK293T cells with transfected human GHS-R1a receptor (Multispan, Hayward, Calif., USA) were used. […] Experiments were carried out in duplicates at least three times. Competitive binding curves were plotted using GraphPad Prism Software (San Diego, Calif., USA) while comparing the best fit for single binding sites models.

[2] = system: fed C57BL/6 male mice; assay: Effect of SC administered ghrelin analogs on food intake; type: in vivo; details: for maximal effect at 5 mg/kg on food intake: SC 5 mg/kg, evaluated 480 min after administration; for ED50 (250 min after injection), effect on food intake: SC, fed mice
Protocol: All of the experiments followed the ethical guidelines for animal experiments and Czech Republic law 246/1992 and were approved by the committee for experiments with laboratory animals of the Academy of Sciences of the Czech Republic. Male C57BL/6 mice (Charles River, Germany) were housed at a temperature 22±2° C. under a daily cycle of 12/12 h light/dark (light from 6:00) with free access to water and a standard chow diet St-1 which contained […] of calories from protein, fat and carbohydrate, respectively, and its energy content was 3.4 kcal/g (Mlýn Kocanda, Praha, Czech Republic). Mice were placed into separate cages for one week before experiment, they had free access to water and food pellets. Closely before the experiment, the food pellets were removed from the cages. […] 15 min after the injection, mice were given preweighed food pellets. Food intake was monitored for 8-10 hours at 30-min intervals. Mice had free access to water during the experiment. Experiments were performed at least twice for each tested compound, each experimental group had at least 5 mice.
Data from food intake experiments were analyzed by one-way ANOVA followed by Dunnett's post-hoc test using GraphPad Prism Software (San Diego, Calif., USA), P<0.05 was considered statistically significant. ED50 values were calculated using GraphPad Prism Software as the dose of the tested compound required to elicit half-maximal effect at 250 min after administration of the corresponding compound.
Food intake was monitored for […] after administration of the compounds. ED50 values were determined 250 min after administration. Maximal effect on food intake was evaluated […] after administration of the compounds at a dose of 5 mg/kg of body weight. NT—not tested.

[3] = Pharmacokinetics in vivo after SC administration to mice; details: SC 5 mg/kg
Protocol: Mice were housed at a temperature 22±2° C. under a daily cycle of 12/12 h light/dark (light from 6:00) with free access to water and a standard chow diet St-1 (Mlýn Kocanda, Praha, Czech Republic).
4, 6, 14 and 18 at a dose of 5 mg/kg of body weight (0.2 ml/mouse, n=4). Blood was collected from tails before injection and 0.5, 1, 2, 4, 8, 16 and 24 h after injection. Plasma was separated and stored at −20° C.

[4] = system: rat model of subtotal nephrectomy; assay: Rat model of renal cachexia (subtotal nephrectomy, SNx); type: in vivo; details: SNx rats, 15-day SC 5 mg/kg
Protocol: Male F344 rats (Harlan, Italy) were housed at a temperature of 22±2° C. under a daily cycle of 12/12 h light/dark (light from 6:00) with free access to water and a standard chow diet St-1 (Mlýn Kocanda, Praha, Czech Republic).
To induce renal dysfunction, 5/6 nephrectomy was performed to anesthetized 8-week-old rats (SNx group, n=14); the control group was sham-operated (Sham group, n=6). Starting from the following day, the rats were SC injected with saline or ghrelin analog no. 2 (5 mg/kg of body weight, dissolved in saline) for 15 days. Food intake and body weight of the rats was monitored every day. At the end of the experiment, blood was collected for determination of pro-inflammatory cytokines using the Milliplex MAP Rat Cytokine/Chemokine Magnetic Bead Panel (Merck-Millipore, St. Charles, Mo., USA).

Compound | % of ghrelin binding [1] [%] | maximal effect at 5 mg/kg on food intake [2] | ED50 (250 min after injection), effect on food intake [2] [mg/kg] | also measured
CCCCCCCCCC(=O)NC[C@H](NC(=O)[C@H](CO)NC(=O)CNC)C(=O)N[C@@H](CC1CCCCC1)C(=O)N[C@@H](CC(C)C)C(=O)N[C@@H](CO)C(=O)N1CCC[C@H]1C(=O)N[C@@H](CCC(=O)O)C(=O)N[C@@H](Cc1c[nH]cn1)C(=O)N[C@@H](CCC(N)=O)C(=O)N[C@@H](CCCCN)C(=O)N[C@@H](C)C(=O)N[C@@H](CCC(N)=O)C(=O)N[C@@H](CCC(N)=O)C(=O)N[C@@H](CCCNC(=N)N)C(=O)N[C@@H](CCCCN)C(=O)N[C@@H](CCC(=O)O)C(=O)N[C@@H](CO)C(=O)N[C@@H](CCCCN)C(=O)N[C@@H](CCCCN)C(=O)N1CCC[C@H]1C(=O)N1CCC[C@H]1C(=O)N[C@@H](C)C(=O)N[C@@H](CCCCN)C(=O)N[C@@H](CC(C)C)C(=O)N[C@@H](CCC(N)=O)C(=O)N1CCC[C@H]1C(=O)N[C@@H](CCCNC(=N)N)C(=O)O [Analog 5] (H-[Sar]S[Dap](Decanoyl)[Cha]LSPEHQKAQQRKESKKPPAKLQPR-OH; N-terminus and C-terminus assumed) | 110 | 204.5 % of Dpr^3ghr | 1.02 | affinity for GHS-R1a compared with ghrelin ([1]; in words): higher affinities for GHS-R1a than ghrelin
CCCCCCCCCCCCCC(=O)NC[C@H](NC(=O)[C@H](CO)NC(=O)CNC)C(=O)N[C@@H](CC1CCCCC1)C(=O)N[C@@H](CC(C)C)C(=O)N[C@@H](CO)C(=O)N1CCC[C@H]1C(=O)N[C@@H](CCC(=O)O)C(=O)N[C@@H](Cc1c[nH]cn1)C(=O)N[C@@H](CCC(N)=O)C(=O)N[C@@H](CCCCN)C(=O)N[C@@H](C)C(=O)N[C@@H](CCC(N)=O)C(=O)N[C@@H](CCC(N)=O)C(=O)N[C@@H](CCCNC(=N)N)C(=O)N[C@@H](CCCCN)C(=O)N[C@@H](CCC(=O)O)C(=O)N[C@@H](CO)C(=O)N[C@@H](CCCCN)C(=O)N[C@@H](CCCCN)C(=O)N1CCC[C@H]1C(=O)N1CCC[C@H]1C(=O)N[C@@H](C)C(=O)N[C@@H](CCCCN)C(=O)N[C@@H](CC(C)C)C(=O)N[C@@H](CCC(N)=O)C(=O)N1CCC[C@H]1C(=O)N[C@@H](CCCNC(=N)N)C(=O)O [Analog 6] (H-[Sar]S[Dap](Myristoyl)[Cha]LSPEHQKAQQRKESKKPPAKLQPR-OH; N-terminus and C-terminus assumed) | 18 | 276.2 % of Dpr^3ghr | 3.05 | stability in vivo compared with ghrelin or Dpr^3ghrelin [3]: significantly more stable than ghrelin or Dpr^3ghrelin; half-life ([3]; male, C57BL/6, mouse, plasma): 420 min
CCCCCCCCCCCCCCCC(=O)NCCCC[C@H](NC(=O)[C@H](C)NC(=O)[C@@H]1CCCN1C(=O)[C@@H]1CCCN1C(=O)[C@H](CCCCN)NC(=O)[C@H](CCCCN)NC(=O)[C@H](CO)NC(=O)[C@H](CCC(=O)O)NC(=O)[C@H](CCCCN)NC(=O)[C@H](CCCNC(=N)N)NC(=O)[C@H](CCC(N)=O)NC(=O)[C@H](CCC(N)=O)NC(=O)[C@H](C)NC(=O)[C@H](CCCCN)NC(=O)[C@H](CCC(N)=O)NC(=O)[C@H](Cc1c[nH]cn1)NC(=O)[C@H](CCC(=O)O)NC(=O)[C@@H]1CCCN1C(=O)[C@H](CO)NC(=O)[C@H](CC(C)C)NC(=O)[C@H](Cc1cccc2ccccc12)NC(=O)[C@H](CNC(=O)CCCCCCC)NC(=O)[C@H](CO)NC(=O)CNC)C(=O)N[C@@H](CC(C)C)C(=O)N[C@@H](CCC(N)=O)C(=O)N1CCC[C@H]1C(=O)N[C@@H](CCCNC(=N)N)C(=O)O [Analog 9] (H-[Sar]S[Dap](Octanoyl)[1Nal]LSPEHQKAQQRKESKKPPAK(Palmitoyl)LQPR-OH; N-terminus and C-terminus assumed) | 5 | 171.1 % of Dpr^3ghr |  | 
CCCCCCCC(=O)NC[C@H](NC(=O)[C@H](CO)NC(=O)CNC)C(=O)N[C@@H](Cc1ccc(Cl)c(Cl)c1)C(=O)N[C@@H](CC(C)C)C(=O)N[C@@H](CO)C(=O)N1CCC[C@H]1C(=O)N[C@@H](CCC(=O)O)C(=O)N[C@@H](Cc1c[nH]cn1)C(=O)N[C@@H](CCC(N)=O)C(=O)N[C@@H](CCCCN)C(=O)N[C@@H](C)C(=O)N[C@@H](CCC(N)=O)C(=O)N[C@@H](CCC(N)=O)C(=O)N[C@@H](CCCNC(=N)N)C(=O)N[C@@H](CCCCN)C(=O)N[C@@H](CCC(=O)O)C(=O)N[C@@H](CO)C(=O)N[C@@H](CCCCN)C(=O)N[C@@H](CCCCN)C(=O)N1CCC[C@H]1C(=O)N1CCC[C@H]1C(=O)N[C@@H](C)C(=O)N[C@@H](CCCCN)C(=O)N[C@@H](CC(C)C)C(=O)N[C@@H](CCC(N)=O)C(=O)N1CCC[C@H]1C(=O)N[C@@H](CCCNC(=N)N)C(=O)O [Analog 13] | 47 | 92.9 % of Dpr^3ghr |  | 
CCCCCCCCCCCCCC(=O)NC[C@H](NC(=O)[C@H](CO)NC(=O)CNC)C(=O)N[C@@H](Cc1ccccc1)C(=O)N[C@@H](CC(C)C)C(=O)N[C@@H](CO)C(=O)N1CCC[C@H]1C(=O)N[C@@H](CCC(=O)O)C(=O)N[C@@H](Cc1c[nH]cn1)C(=O)N[C@@H](CCC(N)=O)C(=O)N[C@@H](CCCCN)C(=O)N[C@@H](C)C(=O)N[C@@H](CCC(N)=O)C(=O)N[C@@H](CCC(N)=O)C(=O)N[C@@H](CCCNC(=N)N)C(=O)N[C@@H](CCCCN)C(=O)N[C@@H](CCC(=O)O)C(=O)N[C@@H](CO)C(=O)O [Analog 18] (H-[Sar]S[Dap](Myristoyl)FLSPEHQKAQQRKES-OH) |  |  |  | stability in vivo compared with ghrelin or Dpr^3ghrelin [3]: significantly more stable than ghrelin or Dpr^3ghrelin
CCCCCCCC(=O)NC[C@H](NC(=O)[C@H](CO)NC(=O)CN)C(=O)N[C@@H](Cc1ccccc1)C(=O)N[C@@H](CC(C)C)C(=O)N[C@@H](CO)C(=O)N1CCC[C@H]1C(=O)N[C@@H](CCC(=O)O)C(=O)N[C@@H](Cc1c[nH]cn1)C(=O)N[C@@H](CCC(N)=O)C(=O)N[C@@H](CCCCN)C(=O)N[C@@H](C)C(=O)N[C@@H](CCC(N)=O)C(=O)N[C@@H](CCC(N)=O)C(=O)N[C@@H](CCCNC(=N)N)C(=O)N[C@@H](CCCCN)C(=O)N[C@@H](CCC(=O)O)C(=O)N[C@@H](CO)C(=O)N[C@@H](CCCCN)C(=O)N[C@@H](CCCCN)C(=O)N1CCC[C@H]1C(=O)N1CCC[C@H]1C(=O)N[C@@H](C)C(=O)N[C@@H](CCCCN)C(=O)N[C@@H](CC(C)C)C(=O)N[C@@H](CCC(N)=O)C(=O)N1CCC[C@H]1C(=O)N[C@@H](CCCNC(=N)N)C(=O)O [Dpr^3ghrelin, reference compound] | 169 | 100 % of Dpr^3ghr | 0.82 | 
(Sar)S(Dpr-N-myr)FLSPEHQKAQQRKESKKPPAKLQPR (XSXFLSPEHQKAQQRKESKKPPAKLQPR; Sar N-terminus; myristoylated Dpr; ghrelin analog) [Analog 2] |  |  |  | IL-1α in blood plasma [4]: 392.3 ± 49.5 pg/mL; IL-2 in blood plasma [4]: 28.1 ± 9.3 pg/mL; IL-6 in blood plasma [4]: 337.3 ± 62.8 pg/mL; IL-10 in blood plasma [4]: 150.7 ± 6.2 pg/mL; TNF-α in blood plasma [4]: 32.6 ± 3.8 pg/mL

Source: patent publication US20170044230A1 (USTAV ORGANICKE CHEMIE A BIOCHEMIE AV CR, V.V.I., priority 2014, published 2017)
